Measured values reported in ChEMBL document CHEMBL3046080, “Synthesis of imidazole-derived steroidal hybrids as potent aromatase inhibitors” (Med Chem Res, 2013).
pIC50: −log10 of the molar value.

How the values were obtained:
Aromatase = target: T1, Aromatase (Homo sapiens, UniProt P11511); design: species or system Placenta, Microsome
T1 sequence (P11511 whole entry): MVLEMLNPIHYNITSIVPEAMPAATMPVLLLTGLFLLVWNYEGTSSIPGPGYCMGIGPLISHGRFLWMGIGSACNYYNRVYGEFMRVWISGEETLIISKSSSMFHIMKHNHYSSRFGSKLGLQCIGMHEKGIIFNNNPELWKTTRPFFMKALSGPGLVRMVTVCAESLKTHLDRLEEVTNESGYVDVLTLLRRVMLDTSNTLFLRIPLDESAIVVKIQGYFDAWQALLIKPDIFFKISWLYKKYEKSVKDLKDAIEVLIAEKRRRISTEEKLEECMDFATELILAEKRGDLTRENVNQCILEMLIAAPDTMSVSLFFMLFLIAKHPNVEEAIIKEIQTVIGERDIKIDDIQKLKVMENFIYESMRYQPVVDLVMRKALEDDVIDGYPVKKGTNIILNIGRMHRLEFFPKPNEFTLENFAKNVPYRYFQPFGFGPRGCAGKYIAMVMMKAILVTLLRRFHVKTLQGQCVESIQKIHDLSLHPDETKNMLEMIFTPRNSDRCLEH
Description: Inhibition of aromatase in Homo sapiens (human) placental microsome assessed as tritiated H2O release from [1-beta-3H] androstenedione substrate preincubated with substrate for 5 min prior to enzyme addition measured after 20 min by beta-scintillation counting analysis

aromatase (CYP19) [1] = target: T2, aromatase (CYP19) (Homo sapiens, UniProt P11511); assay: Inhibition of aromatase in Homo sapiens (human) placental microsome assessed as tritiated H2O release from [1-beta-3H] androstenedione substrate at 5 uM preincubated with substrate for 5 min prior to enzyme addition measured after 20 min by beta-scintillation counting analysis; design: species or system Placenta; settings: placental microsomes, probe [1-beta-3H] androstenedione
T2 sequence (P11511 whole entry): T1 sequence (P11511 whole entry)

aromatase (CYP19) [2] = target: T2, aromatase (CYP19); assay: Inhibition of aromatase in Homo sapiens (human) placental microsome assessed as tritiated H2O release from [1-beta-3H] androstenedione substrate at 36 uM preincubated with substrate for 5 min prior to enzyme addition measured after 20 min by beta-scintillation counting analysis; design: species or system Placenta; settings: placental microsomes, probe [1-beta-3H] androstenedione

In the case of `C[C@]12CCC(=O)C=C1CC[C@@H]1[C@@H]2CC[C@]2(C)C(=O)/C(=C/c3ccc(OCCCn4ccnc4)cc3)C[C@@H]12`, the pIC50 (Aromatase) was 4.92.
Compound `C[C@]12CC[C@H](O)CC1=CC[C@@H]1[C@@H]2CC[C@]2(C)C(=O)/C(=C/c3ccc(OCCCn4ccnc4)cc3)C[C@@H]12` has an inhibition at 20 min, 5 µM (aromatase (CYP19) [1]) of 4.1%.
`C[C@]12CC[C@H](O)CC1=CC[C@@H]1[C@@H]2CC[C@]2(C)C(=O)/C(=C/c3ccc(OCCCCl)cc3)C[C@@H]12` was tested, and the inhibition at 20 min, 5 µM (aromatase (CYP19) [1]) was 0.2%.
In the case of `CC(=O)O[C@H]1CC[C@@]2(C)C(=CC[C@@H]3[C@@H]2CC[C@]2(C)C(=O)/C(=C/c4cccc(OCCCn5ccnc5)c4)C[C@@H]32)C1`, the inhibition at 20 min, 36 µM (aromatase (CYP19) [2]) was 38%.
`CC(=O)O[C@H]1CC[C@@]2(C)C(=CC[C@H]3[C@@H]4C/C(=C\c5cccc(OCCCn6ccnc6)c5)[C@H](OC(C)=O)[C@@]4(C)CC[C@@H]32)C1` gave an inhibition at 20 min, 36 µM (aromatase (CYP19) [2]) of 34%.
`C[C@]12CC[C@H]3[C@@H](CC=C4C[C@@H](O)CC[C@@]43C)[C@@H]1C/C(=C\c1cccc(OCCCn3ccnc3)c1)[C@@H]2O` was tested, and the pIC50 (Aromatase) was 5.04.
For `C[C@]12CC[C@H](O)CC1=CC[C@@H]1[C@@H]2CC[C@]2(C)C(=O)/C(=C/c3cccc(OCCCn4ccnc4)c3)C[C@@H]12`, the inhibition at 20 min, 36 µM (aromatase (CYP19) [2]) was 34%.
